Reference: the NIST ThermoML archive (doi:10.1021/je400184t)

Test: excess molar enthalpy (molar enthalpy of mixing); xn = mol fraction of the nth substance listed
Settings: 298.15 K, 101 kPa, Liquid, Calvet calorimetry

CN(CCO)CCO [N-methyldiethanolamine] + c1ccncc1
Settings | excess molar enthalpy [kcal/mol]
x2 = 0.00136 | -0.000478
x2 = 0.00718 | -0.00191
x2 = 0.01292 | -0.00335
x2 = 0.0186 | -0.00454
x2 = 0.02422 | -0.00598
x2 = 0.03106 | -0.00717
x2 = 0.0378 | -0.00837
x2 = 0.04445 | -0.00956
x2 = 0.051 | -0.0105
x2 = 0.05747 | -0.0115
x2 = 0.06385 | -0.0124
x2 = 0.0715 | -0.0134
x2 = 0.07636 | -0.0143
x2 = 0.08249 | -0.0151
x2 = 0.08853 | -0.0158
x2 = 0.0945 | -0.0165
x2 = 0.1062 | -0.0172
x2 = 0.1119 | -0.0179
x2 = 0.1176 | -0.0186
x2 = 0.1232 | -0.0191
x2 = 0.1287 | -0.0198
x2 = 0.1342 | -0.0203
x2 = 0.139 | -0.0208
x2 = 0.1396 | -0.0215
x2 = 0.1449 | -0.022
x2 = 0.1528 | -0.0225
x2 = 0.1606 | -0.0232
x2 = 0.2605 | -0.0282
x2 = 0.2684 | -0.0284
x2 = 0.2722 | -0.0287
x2 = 0.278 | -0.0287
x2 = 0.2817 | -0.0289
x2 = 0.2854 | -0.0287
x2 = 0.2891 | -0.0287
x2 = 0.2928 | -0.0289
x2 = 0.2964 | -0.0289
x2 = 0.2999 | -0.0289
x2 = 0.3034 | -0.0289
x2 = 0.3069 | -0.0289
x2 = 0.3104 | -0.0289
x2 = 0.3138 | -0.0289
x2 = 0.3172 | -0.0287
x2 = 0.3206 | -0.0287
x2 = 0.3239 | -0.0287
x2 = 0.3272 | -0.0287
x2 = 0.3304 | -0.0287
x2 = 0.3337 | -0.0287
x2 = 0.3368 | -0.0287
x2 = 0.34 | -0.0287
x2 = 0.3431 | -0.0284
x2 = 0.3463 | -0.0284
x2 = 0.3493 | -0.0284
x2 = 0.3524 | -0.0284
x2 = 0.3554 | -0.0284
x2 = 0.3584 | -0.0282
x2 = 0.3614 | -0.0282
x2 = 0.3643 | -0.0282
x2 = 0.3672 | -0.0282
x2 = 0.3701 | -0.028
x2 = 0.3729 | -0.028
x2 = 0.3758 | -0.028
x2 = 0.3786 | -0.0277
x2 = 0.3814 | -0.0277
x2 = 0.3841 | -0.0277
x2 = 0.3868 | -0.0277
x2 = 0.3895 | -0.0275
x2 = 0.3922 | -0.0275
x2 = 0.3949 | -0.0275
x2 = 0.3975 | -0.0272
x2 = 0.4001 | -0.0272
x2 = 0.4027 | -0.0272
x2 = 0.4053 | -0.027
x2 = 0.4078 | -0.027
x2 = 0.4104 | -0.027
x2 = 0.4129 | -0.0268
x2 = 0.4153 | -0.0268
x2 = 0.4178 | -0.0268
x2 = 0.4203 | -0.0265
x2 = 0.4227 | -0.0265
x2 = 0.4251 | -0.0265
x2 = 0.4274 | -0.0263
x2 = 0.4298 | -0.0263
x2 = 0.4321 | -0.0263
x2 = 0.4345 | -0.0261
x2 = 0.4368 | -0.0261
x2 = 0.4391 | -0.0258
x2 = 0.4414 | -0.0258
x2 = 0.4436 | -0.0258
x2 = 0.446 | -0.0256
x2 = 0.4482 | -0.0256
x2 = 0.4505 | -0.0256
x2 = 0.4528 | -0.0253
x2 = 0.4551 | -0.0253
x2 = 0.4574 | -0.0251
x2 = 0.4597 | -0.0251
x2 = 0.462 | -0.0251
x2 = 0.4643 | -0.0249
x2 = 0.4666 | -0.0249
x2 = 0.4689 | -0.0246
x2 = 0.4712 | -0.0246
x2 = 0.4735 | -0.0246
x2 = 0.4758 | -0.0244
x2 = 0.4781 | -0.0244
x2 = 0.4804 | -0.0241
x2 = 0.4827 | -0.0241
x2 = 0.4849 | -0.0241
x2 = 0.4872 | -0.0239
x2 = 0.4895 | -0.0239
x2 = 0.4918 | -0.0237
x2 = 0.4941 | -0.0237
x2 = 0.4964 | -0.0234
x2 = 0.4987 | -0.0234
x2 = 0.501 | -0.0234
x2 = 0.5033 | -0.0232
x2 = 0.5056 | -0.0232
x2 = 0.5079 | -0.0229
x2 = 0.5102 | -0.0229
x2 = 0.5125 | -0.0227
x2 = 0.5148 | -0.0227
x2 = 0.5171 | -0.0225
x2 = 0.5193 | -0.0225
x2 = 0.5216 | -0.0222
x2 = 0.5239 | -0.0222
x2 = 0.5262 | -0.0222
x2 = 0.5285 | -0.022
x2 = 0.5308 | -0.022
x2 = 0.5331 | -0.0217
x2 = 0.5354 | -0.0217
x2 = 0.5377 | -0.0215
x2 = 0.54 | -0.0215
x2 = 0.5423 | -0.0213
x2 = 0.5446 | -0.0213
x2 = 0.5469 | -0.021
x2 = 0.5492 | -0.021
x2 = 0.5515 | -0.0208
x2 = 0.5538 | -0.0208
x2 = 0.5561 | -0.0206
x2 = 0.5584 | -0.0206
